Laboratory results as given in US10538487B2, “Sulfonylureas and related compounds and use of same” (priority 2015, dated 2020).
“And” between values parts separate entries of the source, which are not always exact repeats. Identical values can stand only once.

Test: Single dose pharmacokinetic study in mice (iv 4 mg/Kg, po 20 mg/Kg), plasma concentration post-dosing
Type: in vivo, mouse
Conditions: mouse
Experimental: This is advantageous leading to comparatively lower doses or less frequent administration. The procedure followed was: Male C57BL/6 mice were used at 7-9 weeks age with 3 animals per group. Mice were dosed with test compound using single intravenous bolus or oral gavage. Blood samples were taken via submandibular or saphenous vein for analysis of plasma concentrations of compound by LC-MS/MS at the following timepoints: IV (3 mice): 0.083, 0.25, 0.5, 1, 2, 4, 8 and 24 hours post dosing, PO (3 mice): 0.25, 0.5, 1, 2, 4, 8 and 24 hours post dosing. LC-MS/MS method for the quantitative determination of test compound in corresponding biological matrix was developed. […] The results are shown graphically in FIGS. 1A to 1C (MCC950) and FIGS. 2A to 2C (MCC7840).

[1] = IV 4 mg/Kg, individual mice M1-M3, 4 mg/kg
[2] = PO 20 mg/Kg, individual mice M4-M6, 20 mg/kg

## CC(C)n1ccc(S(=O)(=O)NC(=O)Nc2c3c(cc4c2CCC4)CCC3)n1 [MCC_007840_002]
male, C57BL/6, mouse, plasma, po, 20 mg/kg, PO 20 mg/Kg, mean of 3 mice, read-out: MRT0-last, Mean PO
  MRT last: 6.43 h
male, C57BL/6, mouse, plasma, po, 20 mg/kg, PO 20 mg/Kg, mean of 3 mice, read-out: T1/2, Mean PO (converted)
  half-life: 5.02 h
male, C57BL/6, mouse, plasma, po, 20 mg/kg, PO 20 mg/Kg, mean of 3 mice, read-out: Tmax, Mean PO
  Tmax: 0.25 h
male, C57BL/6, plasma, PO 20 mg/Kg vs IV 4 mg/Kg, Mean PO, read-out: Bioavailability
  bioavailability: 67.2%
IV 4 mg/Kg, 5 min post dosing, individual mice M1-M3, 4 mg/kg
  Plasma concentration, IV Time 5 min: 41900 ng/mL and 38600 ng/mL
IV 4 mg/Kg, 0.250 h post dosing, individual mice M1-M3, 4 mg/kg
  Plasma concentration, IV Time 0.250 h: 29300 ng/mL
IV 4 mg/Kg, 0.500 h post dosing, individual mice M1-M3, 4 mg/kg
  Plasma concentration, IV Time 0.500 h: 25200 ng/mL and 24500 ng/mL
IV 4 mg/Kg, 1.00 h post dosing, individual mice M1-M3, 4 mg/kg
  Plasma concentration, IV Time 1.00 h: 18900 ng/mL and 17200 ng/mL
IV 4 mg/Kg, 2.00 h post dosing, individual mice M1-M3, 4 mg/kg
  Plasma concentration, IV Time 2.00 h: 14700 ng/mL and 19900 ng/mL
IV 4 mg/Kg, 4.00 h post dosing, individual mice M1-M3, 4 mg/kg
  Plasma concentration, IV Time 4.00 h: 8550 ng/mL and 8590 ng/mL
IV 4 mg/Kg, 8.00 h post dosing, individual mice M1-M3, 4 mg/kg
  Plasma concentration, IV Time 8.00 h: 3360 ng/mL and 4440 ng/mL
IV 4 mg/Kg, 24.0 h post dosing, individual mice M1-M3, 4 mg/kg
  Plasma concentration, IV Time 24.0 h: 122 ng/mL and 130 ng/mL
IV 4 mg/Kg, individual mice M1-M3
  Tlast: 24.0 h
[1]
  AUC0-inf: 105.283 µg·h/mL and 116.833 µg·h/mL
  AUC0-last: 104.705 µg·h/mL and 116.222 µg·h/mL
  AUCExtra: 0.770% and 0.549% and 0.523%
  AUMCExtra: 5.23% and 3.81% and 3.41%
  C0: 50100 ng/mL and 44301 ng/mL
  Cl: 0.633 mL/min/kg and 0.571 mL/min/kg
  MRT0-inf: 4.15 h and 4.40 h
  MRT0-last: 4.01 h and 4.28 h
  T1/2: 3.29 h and 3.26 h
  Vdss: 0.158 L/kg and 0.151 L/kg
IV 4 mg/Kg, mean of 3 mice
  AUCExtra, Mean IV: 0.614%
  AUMCExtra, Mean IV: 4.15%
  C0, Mean IV: 52245 ng/mL
  Tlast, Mean IV: 24.0 h
PO 20 mg/Kg, 0.250 h post dosing, individual mice M4-M6, 20 mg/kg
  Plasma concentration, PO Time 0.250 h: 84300 ng/mL and 27400 ng/mL and 69700 ng/mL
PO 20 mg/Kg, 0.500 h post dosing, individual mice M4-M6, 20 mg/kg
  Plasma concentration, PO Time 0.500 h: 70300 ng/mL and 24000 ng/mL and 56600 ng/mL
PO 20 mg/Kg, 1.00 h post dosing, individual mice M4-M6, 20 mg/kg
  Plasma concentration, PO Time 1.00 h: 60400 ng/mL and 20900 ng/mL and 45700 ng/mL
PO 20 mg/Kg, 2.00 h post dosing, individual mice M4-M6, 20 mg/kg
  Plasma concentration, PO Time 2.00 h: 54900 ng/mL and 19100 ng/mL and 53800 ng/mL
PO 20 mg/Kg, 4.00 h post dosing, individual mice M4-M6, 20 mg/kg
  Plasma concentration, PO Time 4.00 h: 32900 ng/mL and 14100 ng/mL and 32800 ng/mL
PO 20 mg/Kg, 8.00 h post dosing, individual mice M4-M6, 20 mg/kg
  Plasma concentration, PO Time 8.00 h: 14100 ng/mL and 12800 ng/mL and 29900 ng/mL
PO 20 mg/Kg, 24.0 h post dosing, individual mice M4-M6, 20 mg/kg
  Plasma concentration, PO Time 24.0 h: 660 ng/mL and 2370 ng/mL and 1370 ng/mL
PO 20 mg/Kg, individual mice M4-M6
  Tlast: 24.0 h
[2]
  AUC0-inf: 251.697 µg·h/mL and 466.063 µg·h/mL
  AUC0-last: 364.947 µg·h/mL and 226.687 µg·h/mL and 457.808 µg·h/mL
  AUCExtra: 0.922% and 9.94% and 1.77%
  AUMCExtra: 5.35% and 32.1% and 7.78%
  Cmax: 84300 ng/mL and 27400 ng/mL and 69700 ng/mL
  MRT0-last: 8.07 h and 6.41 h
  T1/2: 3.57 h and 7.31 h and 4.18 h
PO 20 mg/Kg, mean of 3 mice
  AUCExtra, Mean PO: 4.21%
  AUMCExtra, Mean PO: 15.1%
  Tlast, Mean PO: 24.0 h
